ChEMBL document CHEMBL5291721, “A preclinical secondary pharmacology resource illuminates target-adverse drug reaction associations of marketed drugs” (Nat Commun, 2023)

Tests used:
[1] = molecular target: T1, Gamma-aminobutyric acid receptor subunit alpha-1/alpha-2/beta-2/gamma-2 (Homo sapiens, UniProt P14867+P18507+P47869+P47870); type: functional, cell-based
[2] = molecular target: T1, Gamma-aminobutyric acid receptor subunit alpha-1/alpha-2/beta-2/gamma-2; type: functional, cell-based; remark: listed apart in the source
[3] = molecular target: T2, Alpha-2A adrenergic receptor (Homo sapiens, UniProt P08913)
T2 sequence (P08913 whole entry): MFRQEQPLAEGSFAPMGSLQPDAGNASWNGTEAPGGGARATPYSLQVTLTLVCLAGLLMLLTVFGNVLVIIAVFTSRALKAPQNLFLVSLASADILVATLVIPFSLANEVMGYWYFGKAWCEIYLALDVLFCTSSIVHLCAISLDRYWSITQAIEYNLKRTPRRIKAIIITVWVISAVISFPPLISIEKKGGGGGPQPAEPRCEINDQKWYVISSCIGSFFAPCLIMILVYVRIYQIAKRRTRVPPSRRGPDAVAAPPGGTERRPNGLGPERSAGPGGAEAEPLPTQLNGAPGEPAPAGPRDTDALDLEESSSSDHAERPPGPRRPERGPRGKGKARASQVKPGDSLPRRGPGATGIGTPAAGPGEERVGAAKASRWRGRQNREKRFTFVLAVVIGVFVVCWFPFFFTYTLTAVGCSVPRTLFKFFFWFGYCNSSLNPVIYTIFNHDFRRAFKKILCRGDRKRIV

[4] = molecular target: T3, Corticotropin-releasing factor receptor 1 (Homo sapiens, UniProt P34998)
T3 sequence (P34998 whole entry): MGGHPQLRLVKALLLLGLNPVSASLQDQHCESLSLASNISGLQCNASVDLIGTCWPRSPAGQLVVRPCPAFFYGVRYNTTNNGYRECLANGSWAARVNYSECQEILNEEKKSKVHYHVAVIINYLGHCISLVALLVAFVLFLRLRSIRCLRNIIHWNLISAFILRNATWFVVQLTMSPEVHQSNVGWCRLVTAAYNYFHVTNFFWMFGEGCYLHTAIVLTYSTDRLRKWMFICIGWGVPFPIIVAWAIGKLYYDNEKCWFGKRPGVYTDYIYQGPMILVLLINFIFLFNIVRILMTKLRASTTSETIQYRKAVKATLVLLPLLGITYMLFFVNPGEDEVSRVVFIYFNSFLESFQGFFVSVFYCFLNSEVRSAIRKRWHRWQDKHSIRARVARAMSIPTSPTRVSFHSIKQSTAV

Histamine H2 receptor = Histamine H2 receptor (Homo sapiens, UniProt P25021)
[5] = molecular target: 5-hydroxytryptamine receptor 2B (Homo sapiens, UniProt P41595)
[6] = molecular target: Beta-3 adrenergic receptor (Homo sapiens, UniProt P13945)
[7] = molecular target: T4, Endothelin receptor type B (Homo sapiens, UniProt P24530)
T4 sequence (P24530 whole entry): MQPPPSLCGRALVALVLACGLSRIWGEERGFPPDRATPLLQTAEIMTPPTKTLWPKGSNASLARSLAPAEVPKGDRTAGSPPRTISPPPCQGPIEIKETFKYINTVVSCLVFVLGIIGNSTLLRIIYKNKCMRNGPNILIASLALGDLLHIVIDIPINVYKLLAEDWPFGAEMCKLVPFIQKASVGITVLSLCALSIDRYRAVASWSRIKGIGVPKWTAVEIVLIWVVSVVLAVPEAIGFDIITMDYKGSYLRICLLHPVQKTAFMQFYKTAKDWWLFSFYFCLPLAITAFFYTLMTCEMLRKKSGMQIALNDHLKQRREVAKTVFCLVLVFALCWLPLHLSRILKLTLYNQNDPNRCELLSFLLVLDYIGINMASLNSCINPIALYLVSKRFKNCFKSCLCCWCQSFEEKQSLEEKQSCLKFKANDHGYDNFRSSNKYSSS

B1 bradykinin receptor = molecular target: T5, B1 bradykinin receptor (Homo sapiens, UniProt P46663)
T5 sequence (P46663 whole entry): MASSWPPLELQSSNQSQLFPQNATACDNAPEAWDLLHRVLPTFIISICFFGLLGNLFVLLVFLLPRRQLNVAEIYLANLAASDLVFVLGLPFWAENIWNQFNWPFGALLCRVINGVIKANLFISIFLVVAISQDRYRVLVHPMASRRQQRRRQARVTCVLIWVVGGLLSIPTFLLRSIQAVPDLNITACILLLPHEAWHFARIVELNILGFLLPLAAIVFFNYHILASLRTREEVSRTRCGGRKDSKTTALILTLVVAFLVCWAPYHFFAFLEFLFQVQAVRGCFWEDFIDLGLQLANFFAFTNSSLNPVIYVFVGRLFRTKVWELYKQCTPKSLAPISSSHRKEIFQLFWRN

[8] = molecular target: T6, Neuropeptide Y receptor type 2 (Homo sapiens, UniProt P49146)
T6 sequence (P49146 whole entry): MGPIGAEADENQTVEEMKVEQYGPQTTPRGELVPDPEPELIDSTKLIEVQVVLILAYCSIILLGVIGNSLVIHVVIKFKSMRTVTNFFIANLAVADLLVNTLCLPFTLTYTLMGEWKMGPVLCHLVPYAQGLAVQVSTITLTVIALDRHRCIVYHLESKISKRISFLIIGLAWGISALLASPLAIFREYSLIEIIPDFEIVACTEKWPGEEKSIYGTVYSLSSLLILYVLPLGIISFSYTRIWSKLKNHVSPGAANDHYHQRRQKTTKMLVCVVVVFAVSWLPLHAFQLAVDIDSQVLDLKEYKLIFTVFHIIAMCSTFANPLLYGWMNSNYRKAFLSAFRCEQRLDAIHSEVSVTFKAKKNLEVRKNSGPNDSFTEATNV

Glucagon receptor = Glucagon receptor (Homo sapiens, UniProt P47871)
Note: assay procedure not described here.

T1 sequence (P14867 whole entry): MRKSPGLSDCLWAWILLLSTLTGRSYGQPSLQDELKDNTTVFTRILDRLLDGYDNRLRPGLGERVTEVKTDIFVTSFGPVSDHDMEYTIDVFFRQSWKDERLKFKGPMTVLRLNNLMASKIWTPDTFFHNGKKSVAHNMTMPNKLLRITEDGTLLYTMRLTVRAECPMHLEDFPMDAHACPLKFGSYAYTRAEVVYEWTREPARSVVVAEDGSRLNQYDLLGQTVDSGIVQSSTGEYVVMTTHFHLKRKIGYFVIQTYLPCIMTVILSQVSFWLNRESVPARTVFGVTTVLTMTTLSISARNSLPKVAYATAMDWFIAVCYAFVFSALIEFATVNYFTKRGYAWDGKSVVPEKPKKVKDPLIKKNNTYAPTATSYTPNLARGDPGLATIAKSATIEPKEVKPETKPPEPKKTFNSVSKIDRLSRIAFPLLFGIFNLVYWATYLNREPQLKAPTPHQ
T1 sequence (P47870 whole entry): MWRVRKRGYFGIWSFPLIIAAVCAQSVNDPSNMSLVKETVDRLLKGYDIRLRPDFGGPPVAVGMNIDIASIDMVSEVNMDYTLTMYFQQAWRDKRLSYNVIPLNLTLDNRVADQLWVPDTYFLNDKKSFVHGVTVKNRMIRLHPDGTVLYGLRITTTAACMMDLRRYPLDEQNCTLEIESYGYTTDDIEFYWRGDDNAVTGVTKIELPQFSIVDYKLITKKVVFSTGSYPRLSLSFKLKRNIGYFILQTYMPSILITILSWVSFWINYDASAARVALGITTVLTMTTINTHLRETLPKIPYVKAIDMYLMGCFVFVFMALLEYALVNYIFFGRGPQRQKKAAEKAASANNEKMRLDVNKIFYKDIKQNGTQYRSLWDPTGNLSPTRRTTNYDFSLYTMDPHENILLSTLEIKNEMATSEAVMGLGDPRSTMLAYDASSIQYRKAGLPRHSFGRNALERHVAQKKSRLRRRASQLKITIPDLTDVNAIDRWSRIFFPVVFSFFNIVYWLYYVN
T1 sequence (P18507 whole entry): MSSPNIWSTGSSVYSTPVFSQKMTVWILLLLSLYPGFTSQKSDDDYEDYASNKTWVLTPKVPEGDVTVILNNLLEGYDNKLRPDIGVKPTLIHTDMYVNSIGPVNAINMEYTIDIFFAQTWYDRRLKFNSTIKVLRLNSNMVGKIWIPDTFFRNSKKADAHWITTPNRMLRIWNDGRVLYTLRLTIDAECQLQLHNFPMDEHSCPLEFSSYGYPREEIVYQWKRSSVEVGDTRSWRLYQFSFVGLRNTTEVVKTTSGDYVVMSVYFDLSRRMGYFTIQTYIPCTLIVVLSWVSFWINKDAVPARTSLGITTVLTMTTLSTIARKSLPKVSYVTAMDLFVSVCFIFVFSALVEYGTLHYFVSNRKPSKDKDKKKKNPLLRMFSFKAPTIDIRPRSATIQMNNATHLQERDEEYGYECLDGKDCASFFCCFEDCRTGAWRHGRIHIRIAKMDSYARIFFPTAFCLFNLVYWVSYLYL
T1 sequence (P47869 whole entry): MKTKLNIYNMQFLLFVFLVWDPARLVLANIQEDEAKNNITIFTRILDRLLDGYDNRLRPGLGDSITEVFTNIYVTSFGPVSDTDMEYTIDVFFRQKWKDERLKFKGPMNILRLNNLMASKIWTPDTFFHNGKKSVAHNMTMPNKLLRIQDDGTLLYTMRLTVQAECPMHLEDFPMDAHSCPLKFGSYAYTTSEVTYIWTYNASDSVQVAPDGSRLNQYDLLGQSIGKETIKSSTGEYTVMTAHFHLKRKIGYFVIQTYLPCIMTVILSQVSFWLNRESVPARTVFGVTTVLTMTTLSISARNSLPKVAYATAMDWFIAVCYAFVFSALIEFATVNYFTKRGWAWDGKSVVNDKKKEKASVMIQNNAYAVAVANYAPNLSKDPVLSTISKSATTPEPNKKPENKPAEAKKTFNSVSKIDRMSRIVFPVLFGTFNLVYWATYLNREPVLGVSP
Sequence of Histamine H2 receptor (P25021 whole entry): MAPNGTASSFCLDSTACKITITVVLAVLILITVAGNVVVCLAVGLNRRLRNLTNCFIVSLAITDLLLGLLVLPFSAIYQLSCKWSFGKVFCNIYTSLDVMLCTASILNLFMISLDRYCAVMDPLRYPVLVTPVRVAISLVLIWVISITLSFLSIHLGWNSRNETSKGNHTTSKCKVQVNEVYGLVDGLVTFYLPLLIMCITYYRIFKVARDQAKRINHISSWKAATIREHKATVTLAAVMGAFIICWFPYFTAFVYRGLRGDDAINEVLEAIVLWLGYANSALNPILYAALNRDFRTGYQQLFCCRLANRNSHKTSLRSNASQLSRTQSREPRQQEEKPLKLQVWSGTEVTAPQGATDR
Sequence of Glucagon receptor (P47871 whole entry): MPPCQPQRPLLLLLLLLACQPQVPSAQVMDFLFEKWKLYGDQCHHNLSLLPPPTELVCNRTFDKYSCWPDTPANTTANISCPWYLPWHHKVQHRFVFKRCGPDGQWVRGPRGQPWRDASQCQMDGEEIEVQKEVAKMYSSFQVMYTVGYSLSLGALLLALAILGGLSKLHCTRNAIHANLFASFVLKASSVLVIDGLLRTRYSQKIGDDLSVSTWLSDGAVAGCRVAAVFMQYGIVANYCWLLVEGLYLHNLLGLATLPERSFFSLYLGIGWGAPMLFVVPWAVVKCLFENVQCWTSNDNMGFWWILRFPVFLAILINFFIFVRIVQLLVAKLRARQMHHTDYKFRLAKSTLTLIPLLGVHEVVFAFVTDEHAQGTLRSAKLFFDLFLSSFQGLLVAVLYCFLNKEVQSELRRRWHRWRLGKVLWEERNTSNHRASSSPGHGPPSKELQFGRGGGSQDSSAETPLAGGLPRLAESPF
Sequence of 5-hydroxytryptamine receptor 2B (P41595 whole entry): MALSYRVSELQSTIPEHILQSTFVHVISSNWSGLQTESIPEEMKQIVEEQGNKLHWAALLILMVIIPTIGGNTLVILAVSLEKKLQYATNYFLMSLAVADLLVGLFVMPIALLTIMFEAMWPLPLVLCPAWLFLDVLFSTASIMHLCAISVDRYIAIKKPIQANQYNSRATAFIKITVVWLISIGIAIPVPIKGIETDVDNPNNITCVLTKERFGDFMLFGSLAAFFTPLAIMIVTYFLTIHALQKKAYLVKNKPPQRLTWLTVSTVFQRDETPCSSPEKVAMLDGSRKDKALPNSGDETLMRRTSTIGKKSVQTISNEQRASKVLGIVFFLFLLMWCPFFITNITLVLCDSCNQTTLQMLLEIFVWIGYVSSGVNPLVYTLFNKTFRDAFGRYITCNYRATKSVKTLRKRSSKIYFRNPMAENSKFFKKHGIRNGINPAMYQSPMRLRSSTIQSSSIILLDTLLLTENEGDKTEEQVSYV
Sequence of Beta-3 adrenergic receptor (P13945 whole entry): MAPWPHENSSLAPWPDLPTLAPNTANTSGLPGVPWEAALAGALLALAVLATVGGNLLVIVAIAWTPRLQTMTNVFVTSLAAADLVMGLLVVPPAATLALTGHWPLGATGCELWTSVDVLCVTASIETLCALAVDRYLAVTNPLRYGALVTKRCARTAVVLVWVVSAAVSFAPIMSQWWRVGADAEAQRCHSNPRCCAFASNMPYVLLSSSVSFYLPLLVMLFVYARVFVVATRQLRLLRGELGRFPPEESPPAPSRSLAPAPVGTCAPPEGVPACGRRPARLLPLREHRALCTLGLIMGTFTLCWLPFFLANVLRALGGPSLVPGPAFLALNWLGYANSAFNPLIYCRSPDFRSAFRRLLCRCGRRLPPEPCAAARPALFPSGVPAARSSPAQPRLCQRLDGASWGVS

Row | SMILES | AC50 [1] [µM] | AC50 [2] [µM] | AC50 [3] [µM] | AC50 [4] [µM] | AC50 (Histamine H2 receptor) [µM] | AC50 [5] [µM] | AC50 [6] [µM] | AC50 [7] [µM] | AC50 (B1 bradykinin receptor) [µM] | AC50 [8] [µM] | AC50 (Glucagon receptor) [µM]
1 | CS(=O)(=O)NC(=O)CCC/C=C\C[C@H]1C(=O)C[C@@H](O)[C@@H]1/C=C/[C@@H](O)COc1ccccc1 [SULPROSTONE] | > 30 | > 30 | – | – | – | – | – | – | – | – | –
2 | CCOC(=O)C1=C(C)NC(C)=C(C(=O)OC)C1c1cccc(Cl)c1Cl (configuration not stated) [FELODIPINE] | – | – | > 10 | > 30 | > 10 | > 10 | 10.4 | > 30 | > 30 | > 30 | > 30
3 | N=C(N)NC(=O)Cc1c(Cl)cccc1Cl [GUANFACINE] | > 30 | – | – | – | – | 1.34 | – | – | – | – | –
4 | CCN(CC)C(C)C(=O)c1ccccc1 (configuration not stated) [DIETHYLPROPION] | – | – | 4.46 | > 30 | > 10 | > 10 | > 30 | > 30 | > 30 | > 30 | > 30
5 | Cc1ccc(-c2ncc(Cl)cc2-c2ccc(S(C)(=O)=O)cc2)cn1 [ETORICOXIB] | – | – | > 10 | > 30 | > 10 | > 10 | > 30 | > 30 | > 30 | > 30 | > 30
6 | CCN1C(=O)NC(c2ccccc2)C1=O (configuration not stated) [ETHOTOIN] | > 30 | > 30 | – | – | – | – | – | – | – | – | –
7 | O=C1CN=C(c2ccccc2Cl)c2cc([N+](=O)[O-])ccc2N1 [CLONAZEPAM] | – | – | > 10 | > 30 | > 10 | > 10 | > 30 | > 30 | > 30 | > 30 | > 30
8 | COC(=O)c1ccc2c(c1)NC(=O)/C2=C(\Nc1ccc(N(C)C(=O)CN2CCN(C)CC2)cc1)c1ccccc1 [NINTEDANIB] | > 30 | > 30 | – | – | – | – | – | – | – | – | –
9 | CC(NC(C)(C)C)C(=O)c1cccc(Cl)c1 (configuration not stated) [BUPROPION] | – | – | > 10 | > 30 | > 10 | > 10 | > 30 | > 30 | > 30 | > 30 | > 30
10 | Cc1nnc2n1-c1ccc(Cl)cc1C(c1ccccc1)=NC2 [ALPRAZOLAM] | – | – | > 10 | > 30 | > 10 | > 10 | > 30 | > 30 | > 30 | > 30 | > 30
11 | OCCN(CCO)c1nc(N2CCCCC2)c2nc(N(CCO)CCO)nc(N3CCCCC3)c2n1 [DIPYRIDAMOLE] | – | – | – | – | – | > 30 | > 30 | – | – | – | –
12 | CCN(CC)CC(=O)Nc1c(C)cccc1C [LIDOCAINE] | – | – | – | > 30 | – | – | – | > 30 | > 30 | > 30 | > 30
13 | CC(C)(N)Cc1ccccc1 [PHENTERMINE] | – | – | – | > 30 | – | – | > 30 | > 30 | > 30 | > 30 | > 30
14 | CCN(CC)CCCN(c1ccccc1)C1Cc2ccccc2C1 [APRINDINE] | > 30 | > 30 | – | – | – | – | – | – | – | – | –
15 | CN1CCC(=C2c3ccccc3CC(=O)c3sccc32)CC1 [KETOTIFEN] | – | – | – | – | – | 0.0328 | – | – | – | – | –
16 | CC1=C(C(=O)O)N2C(=O)[C@@H](NC(=O)[C@H](N)C3=CCC=CC3)[C@H]2SC1 [CEPHRADINE] | > 30 | > 30 | – | – | – | – | – | – | – | – | –

Row | SMILES | AC50 [1] [µM] | AC50 [2] [µM] | AC50 [3] [µM] | AC50 [4] [µM] | AC50 (Histamine H2 receptor) [µM] | AC50 [5] [µM] | AC50 [6] [µM] | AC50 [7] [µM] | AC50 (B1 bradykinin receptor) [µM] | AC50 [8] [µM] | AC50 (Glucagon receptor) [µM]
17 | CN1C(=O)CN=C(c2ccccc2F)c2cc([N+](=O)[O-])ccc21 [FLUNITRAZEPAM] | – | – | > 10 | > 30 | > 10 | > 10 | > 30 | > 30 | > 30 | > 30 | > 30
18 | O=C(O[C@H]1C[N+]2(CCCOc3ccccc3)CCC1CC2)C(O)(c1cccs1)c1cccs1 [ACLIDINIUM BROMIDE] | – | – | 2.27 | > 30 | > 10 | > 10 | – | > 30 | > 30 | > 30 | > 30
19 | COc1ccc(-n2nc(C(N)=O)c3c2C(=O)N(c2ccc(N4CCCCC4=O)cc2)CC3)cc1 [APIXABAN] | > 30 | > 30 | – | – | – | – | – | – | – | – | –
20 | CC1Cc2ccccc2N1NC(=O)c1ccc(Cl)c(S(N)(=O)=O)c1 (configuration not stated) [INDAPAMIDE] | – | – | > 10 | – | – | – | – | – | – | – | –
21 | O=C(O)c1nn(Cc2ccc(Cl)cc2Cl)c2ccccc12 [LONIDAMINE] | – | > 30 | – | – | – | – | – | – | – | – | –
22 | CN1C2CCCC1CC(NC(=O)c1nn(C)c3ccccc13)C2 (configuration not stated) [GRANISETRON] | – | – | > 10 | > 30 | > 10 | – | > 30 | > 30 | > 30 | > 30 | > 30
23 | Oc1cc(O)c2c(c1)O[C@H](c1ccc(O)c(O)c1)[C@@H](O)C2 [CIANIDANOL] | – | – | > 10 | > 30 | > 10 | > 10 | > 30 | > 30 | > 30 | > 30 | > 30
24 | CCCCCCOC(=O)NC(=N)c1ccc(NCc2nc3cc(C(=O)N(CCC(=O)OCC)c4ccccn4)ccc3n2C)cc1 [DABIGATRAN ETEXILATE] | > 30 | > 30 | – | – | – | – | – | – | – | – | –
25 | CCC(=O)O[C@H](CC(=O)O)C[N+](C)(C)C [LEVOCARNITINE PROPIONATE] | > 30 | > 30 | – | – | – | – | – | – | – | – | –
26 | CCCCCCCC(=O)CC[C@@H]1[C@@H](C/C=C\CCCC(=O)O)[C@@H](O)C[C@H]1O [UNOPROSTONE] | > 30 | > 30 | – | – | – | – | – | – | – | – | –
27 | NS(=O)(=O)c1ccc(N2CCCCS2(=O)=O)cc1 | > 30 | > 30 | – | – | – | – | – | – | – | – | –
28 | CC(=O)Oc1cccc2c1C(=O)c1c(OC(C)=O)cc(C(=O)O)cc1C2=O [DIACEREIN] | – | – | – | – | – | > 30 | – | – | – | – | –
29 | CC1NCCOC1c1ccccc1 (configuration not stated) [PHENMETRAZINE] | – | – | – | > 30 | – | – | > 30 | > 30 | > 30 | > 30 | > 30
30 | CC(=O)OCC1=C(C(=O)O)N2C(=O)[C@@H](NC(=O)Cc3cccs3)[C@H]2SC1 [CEPHALOTHIN] | > 30 | > 30 | – | – | – | – | – | – | – | – | –
31 | COc1ccc(C(Cl)=C(c2ccc(OC)cc2)c2ccc(OC)cc2)cc1 [CHLOROTRIANISENE] | > 30 | > 30 | – | – | – | – | – | – | – | – | –
